tested on: HCI-002 (organoid from a triple-negative breast cancer xenograft); assay: CTG-3D luminescence at 96 h relative to day-0 seeding control (ratio to day 0); higher = more growth / less cytotoxicity; PDxO 3D drug screen, 96 h, CTG-3D normalised to day-0 seeding control.; settings: 10 µM; days in culture: 91

Going from `COc1cc2c(Oc3ccc4[nH]c(C)cc4c3F)ncnc2cc1OCCCN1CCCC1` [cediranib] to `Cc1cc(Nc2ncnc3ccc(NC4=NC(C)(C)CO4)cc23)ccc1Oc1ccn2ncnc2c1` [tucatinib], the “CTG-3D luminescence at 96 h” value rises from 0.0389 to 2.58.

Compared with `CC(C)n1nc(-c2ccc3oc(N)nc3c2)c2c(N)ncnc21` [sapanisertib], `C=CCn1c(=O)c2cnc(Nc3ccc(N4CCN(C)CC4)cc3)nc2n1-c1cccc(C(C)(C)O)n1` [adavosertib] is lower in “CTG-3D luminescence at 96 h” value: 0.697 for the first, 0.274 for the second.

Compared with `C[C@H](NC(=O)CCC(F)(F)F)C(=O)N[C@@H]1C(=O)N(CCO)c2ncccc2-c2ccccc21` [crenigacestat], `O=C(/C=C/c1cccnc1)NCCCCC1CCN(C(=O)c2ccccc2)CC1` [FK866] is lower in “CTG-3D luminescence at 96 h” value: 3.56 for the first, 0.025 for the second.

Going from `C[C@]12CC[C@@H]3c4ccc(O)cc4C[C@@H](CCCCCCCCC[S+]([O-])CCCC(F)(F)C(F)(F)F)[C@H]3[C@@H]1CC[C@@H]2O` (some centres not stated) [fulvestrant] to `O=C(c1ccc(F)c(F)c1Nc1ccc(I)cc1F)N1CC(O)([C@@H]2CCCCN2)C1` [cobimetinib], the “CTG-3D luminescence at 96 h” value falls from 3.39 to 0.722.

With `CS(=O)(=O)c1ccc(C(=O)Nc2ccc(Cl)c(-c3ccccn3)c2)c(Cl)c1` [vismodegib] the “CTG-3D luminescence at 96 h” value was 2.07.

same assay, conditions: 10 µM; days in culture: 191

First: COc1cc2c(Oc3ccc4[nH]c(C)cc4c3F)ncnc2cc1OCCCN1CCCC1 [cediranib]
Second: Cc1cc(Nc2ncnc3ccc(NC4=NC(C)(C)CO4)cc23)ccc1Oc1ccn2ncnc2c1 [tucatinib]
The “CTG-3D luminescence at 96 h” value of the first is lower: 0.0249 for the first, 2.01 for the second.

Going from `CC(C)n1nc(-c2ccc3oc(N)nc3c2)c2c(N)ncnc21` [sapanisertib] to `C=CCn1c(=O)c2cnc(Nc3ccc(N4CCN(C)CC4)cc3)nc2n1-c1cccc(C(C)(C)O)n1` [adavosertib], the “CTG-3D luminescence at 96 h” value falls from 0.443 to 0.247.

Compared with `C[C@H](NC(=O)CCC(F)(F)F)C(=O)N[C@@H]1C(=O)N(CCO)c2ncccc2-c2ccccc21` [crenigacestat], `O=C(/C=C/c1cccnc1)NCCCCC1CCN(C(=O)c2ccccc2)CC1` [FK866] is lower in “CTG-3D luminescence at 96 h” value: 2.35 for the first, 0.0599 for the second.

Compared with `C[C@]12CC[C@@H]3c4ccc(O)cc4C[C@@H](CCCCCCCCC[S+]([O-])CCCC(F)(F)C(F)(F)F)[C@H]3[C@@H]1CC[C@@H]2O` (some centres not stated) [fulvestrant], `O=C(c1ccc(F)c(F)c1Nc1ccc(I)cc1F)N1CC(O)([C@@H]2CCCCN2)C1` [cobimetinib] is lower in “CTG-3D luminescence at 96 h” value: 2.54 for the first, 0.799 for the second.

For `CS(=O)(=O)c1ccc(C(=O)Nc2ccc(Cl)c(-c3ccccn3)c2)c(Cl)c1` [vismodegib], the “CTG-3D luminescence at 96 h” value was 2.89.

same assay, conditions: 10 µM; days in culture: 209

Going from `COc1cc2c(Oc3ccc4[nH]c(C)cc4c3F)ncnc2cc1OCCCN1CCCC1` [cediranib] to `Cc1cc(Nc2ncnc3ccc(NC4=NC(C)(C)CO4)cc23)ccc1Oc1ccn2ncnc2c1` [tucatinib], the “CTG-3D luminescence at 96 h” value rises from 0.0194 to 1.5.

Compared with `CC(C)n1nc(-c2ccc3oc(N)nc3c2)c2c(N)ncnc21` [sapanisertib], `C=CCn1c(=O)c2cnc(Nc3ccc(N4CCN(C)CC4)cc3)nc2n1-c1cccc(C(C)(C)O)n1` [adavosertib] is higher in “CTG-3D luminescence at 96 h” value: 0.209 for the first, 0.217 for the second.

First: C[C@H](NC(=O)CCC(F)(F)F)C(=O)N[C@@H]1C(=O)N(CCO)c2ncccc2-c2ccccc21 [crenigacestat]
Second: O=C(/C=C/c1cccnc1)NCCCCC1CCN(C(=O)c2ccccc2)CC1 [FK866]
The “CTG-3D luminescence at 96 h” value of the first is higher: 1.93 for the first, 0.0272 for the second.

First: C[C@]12CC[C@@H]3c4ccc(O)cc4C[C@@H](CCCCCCCCC[S+]([O-])CCCC(F)(F)C(F)(F)F)[C@H]3[C@@H]1CC[C@@H]2O (some centres not stated) [fulvestrant]
Second: O=C(c1ccc(F)c(F)c1Nc1ccc(I)cc1F)N1CC(O)([C@@H]2CCCCN2)C1 [cobimetinib]
The “CTG-3D luminescence at 96 h” value of the first is higher: 1.83 for the first, 0.589 for the second.

In the case of `CS(=O)(=O)c1ccc(C(=O)Nc2ccc(Cl)c(-c3ccccn3)c2)c(Cl)c1` [vismodegib], the “CTG-3D luminescence at 96 h” value is reported as 2.31.

same assay, conditions: 10 µM; days in culture: 227

First: COc1cc2c(Oc3ccc4[nH]c(C)cc4c3F)ncnc2cc1OCCCN1CCCC1 [cediranib]
Second: Cc1cc(Nc2ncnc3ccc(NC4=NC(C)(C)CO4)cc23)ccc1Oc1ccn2ncnc2c1 [tucatinib]
The “CTG-3D luminescence at 96 h” value of the first is lower: -0.101 for the first, 3.82 for the second.

First: CC(C)n1nc(-c2ccc3oc(N)nc3c2)c2c(N)ncnc21 [sapanisertib]
Second: C=CCn1c(=O)c2cnc(Nc3ccc(N4CCN(C)CC4)cc3)nc2n1-c1cccc(C(C)(C)O)n1 [adavosertib]
The “CTG-3D luminescence at 96 h” value of the first is higher: 0.598 for the first, 0.312 for the second.

Going from `C[C@H](NC(=O)CCC(F)(F)F)C(=O)N[C@@H]1C(=O)N(CCO)c2ncccc2-c2ccccc21` [crenigacestat] to `O=C(/C=C/c1cccnc1)NCCCCC1CCN(C(=O)c2ccccc2)CC1` [FK866], the “CTG-3D luminescence at 96 h” value falls from 4.97 to 0.0434.

Going from `C[C@]12CC[C@@H]3c4ccc(O)cc4C[C@@H](CCCCCCCCC[S+]([O-])CCCC(F)(F)C(F)(F)F)[C@H]3[C@@H]1CC[C@@H]2O` (some centres not stated) [fulvestrant] to `O=C(c1ccc(F)c(F)c1Nc1ccc(I)cc1F)N1CC(O)([C@@H]2CCCCN2)C1` [cobimetinib], the “CTG-3D luminescence at 96 h” value falls from 5 to 1.04.

In the case of `CS(=O)(=O)c1ccc(C(=O)Nc2ccc(Cl)c(-c3ccccn3)c2)c(Cl)c1` [vismodegib], the “CTG-3D luminescence at 96 h” value is reported as 4.34.

same assay, conditions: 100 µM; days in culture: 62

Going from `COc1cc2c(Oc3ccc4[nH]c(C)cc4c3F)ncnc2cc1OCCCN1CCCC1` [cediranib] to `Cc1cc(Nc2ncnc3ccc(NC4=NC(C)(C)CO4)cc23)ccc1Oc1ccn2ncnc2c1` [tucatinib], the “CTG-3D luminescence at 96 h” value rises from -0.00243 to 0.0174.

Going from `CC(C)n1nc(-c2ccc3oc(N)nc3c2)c2c(N)ncnc21` [sapanisertib] to `C=CCn1c(=O)c2cnc(Nc3ccc(N4CCN(C)CC4)cc3)nc2n1-c1cccc(C(C)(C)O)n1` [adavosertib], the “CTG-3D luminescence at 96 h” value rises from 0.0431 to 0.324.

First: C[C@H](NC(=O)CCC(F)(F)F)C(=O)N[C@@H]1C(=O)N(CCO)c2ncccc2-c2ccccc21 [crenigacestat]
Second: O=C(/C=C/c1cccnc1)NCCCCC1CCN(C(=O)c2ccccc2)CC1 [FK866]
The “CTG-3D luminescence at 96 h” value of the first is higher: 2.8 for the first, 0.0284 for the second.

Compared with `C[C@]12CC[C@@H]3c4ccc(O)cc4C[C@@H](CCCCCCCCC[S+]([O-])CCCC(F)(F)C(F)(F)F)[C@H]3[C@@H]1CC[C@@H]2O` (some centres not stated) [fulvestrant], `O=C(c1ccc(F)c(F)c1Nc1ccc(I)cc1F)N1CC(O)([C@@H]2CCCCN2)C1` [cobimetinib] is lower in “CTG-3D luminescence at 96 h” value: 2.61 for the first, -0.0104 for the second.

`CS(=O)(=O)c1ccc(C(=O)Nc2ccc(Cl)c(-c3ccccn3)c2)c(Cl)c1` [vismodegib] was tested, and the “CTG-3D luminescence at 96 h” value was 0.385.

same assay, conditions: 100 µM; days in culture: 82

Compared with `COc1cc2c(Oc3ccc4[nH]c(C)cc4c3F)ncnc2cc1OCCCN1CCCC1` [cediranib], `Cc1cc(Nc2ncnc3ccc(NC4=NC(C)(C)CO4)cc23)ccc1Oc1ccn2ncnc2c1` [tucatinib] is higher in “CTG-3D luminescence at 96 h” value: 0.00109 for the first, 0.0194 for the second.

Compared with `CC(C)n1nc(-c2ccc3oc(N)nc3c2)c2c(N)ncnc21` [sapanisertib], `C=CCn1c(=O)c2cnc(Nc3ccc(N4CCN(C)CC4)cc3)nc2n1-c1cccc(C(C)(C)O)n1` [adavosertib] is higher in “CTG-3D luminescence at 96 h” value: 0.0264 for the first, 0.134 for the second.

Going from `C[C@H](NC(=O)CCC(F)(F)F)C(=O)N[C@@H]1C(=O)N(CCO)c2ncccc2-c2ccccc21` [crenigacestat] to `O=C(/C=C/c1cccnc1)NCCCCC1CCN(C(=O)c2ccccc2)CC1` [FK866], the “CTG-3D luminescence at 96 h” value falls from 2.21 to 0.0409.

Going from `C[C@]12CC[C@@H]3c4ccc(O)cc4C[C@@H](CCCCCCCCC[S+]([O-])CCCC(F)(F)C(F)(F)F)[C@H]3[C@@H]1CC[C@@H]2O` (some centres not stated) [fulvestrant] to `O=C(c1ccc(F)c(F)c1Nc1ccc(I)cc1F)N1CC(O)([C@@H]2CCCCN2)C1` [cobimetinib], the “CTG-3D luminescence at 96 h” value falls from 2.5 to -0.0137.

In the case of `CS(=O)(=O)c1ccc(C(=O)Nc2ccc(Cl)c(-c3ccccn3)c2)c(Cl)c1` [vismodegib], the “CTG-3D luminescence at 96 h” value is reported as 0.287.

same assay, conditions: 100 µM; days in culture: 91

Going from `COc1cc2c(Oc3ccc4[nH]c(C)cc4c3F)ncnc2cc1OCCCN1CCCC1` [cediranib] to `Cc1cc(Nc2ncnc3ccc(NC4=NC(C)(C)CO4)cc23)ccc1Oc1ccn2ncnc2c1` [tucatinib], the “CTG-3D luminescence at 96 h” value rises from -0.00511 to 0.0163.

First: CC(C)n1nc(-c2ccc3oc(N)nc3c2)c2c(N)ncnc21 [sapanisertib]
Second: C=CCn1c(=O)c2cnc(Nc3ccc(N4CCN(C)CC4)cc3)nc2n1-c1cccc(C(C)(C)O)n1 [adavosertib]
The “CTG-3D luminescence at 96 h” value of the first is lower: 0.0524 for the first, 0.495 for the second.

Compared with `C[C@H](NC(=O)CCC(F)(F)F)C(=O)N[C@@H]1C(=O)N(CCO)c2ncccc2-c2ccccc21` [crenigacestat], `O=C(/C=C/c1cccnc1)NCCCCC1CCN(C(=O)c2ccccc2)CC1` [FK866] is lower in “CTG-3D luminescence at 96 h” value: 2.88 for the first, 0.0475 for the second.

First: C[C@]12CC[C@@H]3c4ccc(O)cc4C[C@@H](CCCCCCCCC[S+]([O-])CCCC(F)(F)C(F)(F)F)[C@H]3[C@@H]1CC[C@@H]2O (some centres not stated) [fulvestrant]
Second: O=C(c1ccc(F)c(F)c1Nc1ccc(I)cc1F)N1CC(O)([C@@H]2CCCCN2)C1 [cobimetinib]
The “CTG-3D luminescence at 96 h” value of the first is higher: 2.65 for the first, -0.0112 for the second.

With `CS(=O)(=O)c1ccc(C(=O)Nc2ccc(Cl)c(-c3ccccn3)c2)c(Cl)c1` [vismodegib] the “CTG-3D luminescence at 96 h” value was 0.194.

same assay, conditions: 100 µM; days in culture: 191

First: COc1cc2c(Oc3ccc4[nH]c(C)cc4c3F)ncnc2cc1OCCCN1CCCC1 [cediranib]
Second: Cc1cc(Nc2ncnc3ccc(NC4=NC(C)(C)CO4)cc23)ccc1Oc1ccn2ncnc2c1 [tucatinib]
The “CTG-3D luminescence at 96 h” value of the first is lower: 0.000973 for the first, 0.0155 for the second.

First: CC(C)n1nc(-c2ccc3oc(N)nc3c2)c2c(N)ncnc21 [sapanisertib]
Second: C=CCn1c(=O)c2cnc(Nc3ccc(N4CCN(C)CC4)cc3)nc2n1-c1cccc(C(C)(C)O)n1 [adavosertib]
The “CTG-3D luminescence at 96 h” value of the first is lower: 0.0974 for the first, 0.507 for the second.

First: C[C@H](NC(=O)CCC(F)(F)F)C(=O)N[C@@H]1C(=O)N(CCO)c2ncccc2-c2ccccc21 [crenigacestat]
Second: O=C(/C=C/c1cccnc1)NCCCCC1CCN(C(=O)c2ccccc2)CC1 [FK866]
The “CTG-3D luminescence at 96 h” value of the first is higher: 2.4 for the first, 0.0916 for the second.

First: C[C@]12CC[C@@H]3c4ccc(O)cc4C[C@@H](CCCCCCCCC[S+]([O-])CCCC(F)(F)C(F)(F)F)[C@H]3[C@@H]1CC[C@@H]2O (some centres not stated) [fulvestrant]
Second: O=C(c1ccc(F)c(F)c1Nc1ccc(I)cc1F)N1CC(O)([C@@H]2CCCCN2)C1 [cobimetinib]
The “CTG-3D luminescence at 96 h” value of the first is higher: 2.67 for the first, -0.00417 for the second.

In the case of `CS(=O)(=O)c1ccc(C(=O)Nc2ccc(Cl)c(-c3ccccn3)c2)c(Cl)c1` [vismodegib], the “CTG-3D luminescence at 96 h” value is reported as 0.429.

Reference: the supplement of paper PMC8882468
